# According to patent US20220177819A1, “MICROFLUIDIC SYSTEM FOR INTRACELLULAR DELIVERY OF MATERIALS AND METHOD THEREFOR” (MxT BIOTECH, priority 2019, published 2022):
# Test system: MDA-MB-231 cells
# Test: DOX cytotoxicity after delivery of DOX-loaded MSNs, trypan blue exclusion
# Format: cell-based
# Settings: DOX loaded into MSNs delivered by the microfluidic system, after 6 hours
# Protocol: In the experiment, doxorubicin (DOX), an anticancer drug, was loaded into MSNs and the MSNs were delivered into MDA-MB-231 cells.
# Referring to FIG. 31, DOX cytotoxicity to MDA-MB-231 cells was measured by the trypan blue exclusion method, and it can be seen that approximately 85% of cancer cells were killed after 6 hours.
compound,measurement,value
"COc1cccc2c1C(=O)c1c(O)c3c(c(O)c1C2=O)C[C@@](O)(C(=O)CO)C[C@@H]3O[C@H]1C[C@H](N)[C@H](O)[C@H](C)O1 [DOX, doxorubicin]",cancer cells killed,approximately 85%
